In patent US7964598B2 (The J. David Gladstone Institutes, priority 1995, dated 2011):

How the values were obtained:
HepG2 cells = experiment: Cell association of 125I-apoE-enriched β-VLDL by HepG2 cells; type: cell-based, human
wild-type CHO cells = experiment: Pulse chase of 125I-apoE+β-VLDL, wild-type CHO cells; type: cell-based, Chinese hamster; conditions: for Total: recovery in the fractions; for bound to the cells at 4° C. (zero time): wild-type CHO cells
Method: (§1) Cultured cells were grown to ˜100% confluence, placed on ice, and washed twice with cold DMEM-Hepes. The cells were then incubated with ^125I-apoE+β-VLDL at 4° C. for 1 h to allow for cell-surface binding (zero time bound ligand). Cells were rinsed three times with cold F12 medium to remove unbound ligands. Prewarmed F12 medium was added; and the cells were incubated at 37° C. for the times indicated. At each point, the cells were again placed on ice, and the culture medium was collected. To 0.5 ml of medium was added 0.4 ml of 0.2% bovine serum albumin (Sigma) and 0.4 ml of 50% trichloroacetic acid (TCA). The medium was then incubated at 4° C. for 30 min and centrifuged at 3,000 rpm for 10 min. The supernatant was collected for ^125I-apoE degradation assay, and the pellet was counted as TCA-precipitable intact ^125I-apoE. The cells were washed once with cold DMEM-Hepes, incubated with 10 mM suramin on ice in a cold room for 30 min, and then dissolved in 0.1 N NaOH. Cellular radioactivity (internalized apoE) was measured with a gamma counter, and protein concentration was determined by Lowry's method.
To evaluate these possibilities, we conducted a modified A pulse-chase@ study in which CHO cells were incubated with ^125I-apoE-enriched β-VLDL for 1 h at 4° C., washed to remove unbound lipoproteins, and then warmed to 37° C. for various times to follow internalization, degradation, and retention (see Materials and Methods). At the specific times, the medium was removed for analysis of both degradation products (degraded apoE) and TCA-precipitable proteins (released intact apoE), and the cells were washed with suramin (suramin-releasable apoE) and then counted (internalized apoE).

HSPG-deficient CHO cells = experiment: Pulse chase of 125I-apoE+β-VLDL, HSPG-deficient CHO cells; type: cell-based, Chinese hamster
Method: as §1

B103-neo cells = experiment: Cell association and degradation of 125I-Aβ40 by B103-neo cells; type: cell-based, rat; conditions: 125I-Aβ1-40 350 pg/ml with apoE, 24-h incubation
Method: Cell Association and Degradation of ^125I-Aβ40 by Neo-transfected B103 Cells. […] Culture medium was collected after 24 h, and the degradation products of ^125I-Aβ40 in the medium were assayed as described. Goldstein et al al. ((1983) Methods Enzymol. 98:241-250). The cells were washed five times on ice with phosphate-buffered saline (PBS) containing 0.2% bovine serum albumin and once with PBS and lysed by 0.1 N NaOH. The cell-associated ^125I-Aβ40 was determined by counting the radioactivity in the cell lysate.
The cell association and degradation of Aβ were measured after a 24-h incubation, as described in Methods, above.

Neuro-2a cells = experiment: Metabolism of apoE-enriched β-VLDL by Neuro-2a cells; type: cell-based, mouse; conditions: for enhancement of cell association of β-VLDL: 125I-β-VLDL enriched with apoE; for cell association: purified 125I-apoE-enriched β-VLDL; for increase of cellular cholesterol content: β-VLDL enriched with apoE, compared with β-VLDL alone
Method: Rabbit β-VLDL (d<1.006 g/ml) were isolated from the plasma of New Zealand White rabbits fed a high-fat, high-cholesterol diet for 4 days. The ratio of cholesterol to protein in this β-VLDL ranged from ˜15 to 20:1. Human apoE-enriched β-VLDL were prepared by incubating apoE with β-VLDL at 37° C. for 1 h. For some experiments, the apoE-enriched β-VLDL were reisolated by fast-performance liquid chromatography as follows. Either ^125I-β-VLDL and unlabeled apoE or ^125I-apoE and unlabeled β-VLDL were mixed in a 1:1.5 ratio of β-VLDL protein to apoE and incubated at 37° C. for 1 h. The mixture (250 μl) was then fractionated by chromatography on a Superose 6 column (Pharmacia Fine Chemicals, Uppsala, Sweden, 10/50 HR). The flow rate was 0.5 ml/min, and 0.5 ml fractions were collected. The elution profile was monitored by quantitation of ^125I and cholesterol.
Cultured cells were grown to ˜100% confluence, washed twice with fresh serum-free medium, and incubated at 37° C. with apoE-enriched β-VLDL. Before addition to the cells, the β-VLDL and apoE were incubated together (5 and 7.5 μg of protein, respectively, unless otherwise indicated) for 1 h at 37° C. Some cells were incubated with 50 μM chloroquine, and inhibitor of lysosomal protease, at 37° C. for 2 h before addition of the apoE-enriched β-VLDL. At the times indicated, the cells were placed on ice, and the medium was assayed for protein degradation products. For the cell association studies, Neuro-2a cells were washed five times on ice with 0.1 M PBS containing 0.2% bovine serum albumin and once with 0.1 M PBS. Cell-associated ligand represents both bound and internalized material. The fibroblasts were washed three times with DMEM-Hepes on ice and incubated with 10 mM suramin at 4° C. for 30 min to remove surface-bound ligand. The radioactivity remaining within the cells represents that which was “internalized.” After washing, the cells were dissolved in 0.1 N NaOH for measurement of radioactivity and protein concentration.
The cells were then washed and solubilized with 0.1 N NaOH, and the cell-associated DiI, which is proportional to the total amount of lipoprotein metabolized (bound, internalized, and degraded), was assayed.

Row | Substance | cell association (HepG2 cells; 4 hours) [ng/mg cell protein] | cell association (HepG2 cells; 8 hours) [ng/mg cell protein] | Total (wild-type CHO cells; 30 min) [ng/mg cell protein] | Degraded (wild-type CHO cells; 30 min at 37° C.) [ng/mg cell protein] | Internalized (retained) (wild-type CHO cells; 30 min at 37° C.) [ng/mg cell protein] | Suramin-releasable (cell surface) (wild-type CHO cells; 30 min at 37° C.) [ng/mg cell protein] | TCA-precipitable (released intact) (wild-type CHO cells; 30 min at 37° C.) [ng/mg cell protein] | Total (wild-type CHO cells; 60 min) [ng/mg cell protein] | Degraded (wild-type CHO cells; 60 min at 37° C.) [ng/mg cell protein] | Internalized (retained) (wild-type CHO cells; 60 min at 37° C.) [ng/mg cell protein] | Suramin-releasable (cell surface) (wild-type CHO cells; 60 min at 37° C.) [ng/mg cell protein] | TCA-precipitable (released intact) (wild-type CHO cells; 60 min at 37° C.) [ng/mg cell protein] | Total (wild-type CHO cells; 120 min) [ng/mg cell protein] | Degraded (wild-type CHO cells; 120 min at 37° C.) [ng/mg cell protein] | Internalized (retained) (wild-type CHO cells; 120 min at 37° C.) [ng/mg cell protein] | Suramin-releasable (cell surface) (wild-type CHO cells; 120 min at 37° C.) [ng/mg cell protein] | TCA-precipitable (released intact) (wild-type CHO cells; 120 min at 37° C.) [ng/mg cell protein] | bound to the cells at 4° C. (zero time) (wild-type CHO cells) | bound to the cells (HSPG-deficient CHO cells) | Cell association of 125I-Aβ1-40 (B103-neo cells) [fmol/mg cell protein] | also measured
1 | apoE3: human apolipoprotein E3 isoform, also iodinated | 1062 ± 171 | 1466 ± 38 | 399 | 15 | 157 | 45 | 182 | 377 | 34 | 123 | 39 | 181 | 367 | 45 | 78 | 12 | 232 | 399 ng/mg of cell protein | 77 ng/mg of cell protein | 10.8 ± 2.5 | Degradation of 125I-Aβ1-40 (B103-neo cells): 88.0 ± 6.7 fmol/mg cell protein; enhancement of cell association of β-VLDL (Neuro-2a cells): ~1.7 fold; cell association (Neuro-2a cells; 2 h): 58 ng/mg of cell protein; cell association (Neuro-2a cells; 4 h): 101 ng/mg of cell protein; increase of cellular cholesterol content (Neuro-2a cells): ~1.5 fold
2 | apoE4: human apolipoprotein E4 isoform, also iodinated | 51 ± 10 | 683 ± 6 | 368 | 12 | 84 | 27 | 245 | 338 | 35 | 55 | 10 | 238 | 305 | 43 | 27 | 10 | 225 | 378 ng/mg of cell protein | 75 ng/mg of cell protein | 14.7 ± 2.5 | Degradation of 125I-Aβ1-40 (B103-neo cells): 80.8 ± 22.9 fmol/mg cell protein; enhancement of cell association of β-VLDL (Neuro-2a cells): ~1.7 fold; cell association (Neuro-2a cells; 2 h): 39 ng/mg of cell protein; cell association (Neuro-2a cells; 4 h): 65 ng/mg of cell protein; increase of cellular cholesterol content (Neuro-2a cells): ~1.7 fold
